These results are taken from patent publication US20030017618A1, “Chemical sensor and method of detecting chemical” (priority 2000, published 2003).

For one assay, the target named is T1, OBP 6C (Bos taurus, UniProt P07435).
T1 construct: successively elongated for finally synthesizing the whole length of the OBP gene; made in house; host or cells: E. coli BL21 (pET 28a(+), pETOBP-His)
T1 sequence (P07435 1-159): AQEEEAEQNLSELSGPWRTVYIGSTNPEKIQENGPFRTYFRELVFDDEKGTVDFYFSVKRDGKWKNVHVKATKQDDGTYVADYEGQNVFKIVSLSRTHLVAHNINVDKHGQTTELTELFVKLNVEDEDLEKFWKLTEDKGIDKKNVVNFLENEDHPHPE
As to the kind of experiment: quantity of immobilization of OBP 6C to NTA sensor chip (surface plasmon resonance, BiacoreX) in presence of odorant. Conditions: for affinity for the OBP 6C: OBP solution 200 nM, 25° C. It is filed as binding, bovine. As for the experimental part:
In preparation of the OBP 6C solution employed in the present Inventive Example, the OBP 6C prepared in the aforementioned manner was dissolved in an EB (eluent buffer) and diluted so that the concentration of the solution reached 200 nM.
In preparation of the odorant solutions employed in the present Inventive Example, on the other hand, the six types of odorants, i.e., cineol, linalyl acetate, pinene, geraniol, citronellal and oxidized citronellal were dissolved in ethanol solutions (EtOH) respectively, for preparing odorant solutions of 10^−5 M in concentration as to the respective odorants.
100 μl of the OBP solution having the concentration of 200 nM prepared in the aforementioned manner and 0.1 μl of each odorant solution having the concentration of 10^−5 M were mixed with each other, for preparing six types of sample solutions employed for measurement. In this case, the final concentration of the odorant in each sample solution is […].
An ethanol solution of the OBP 6C (final concentration of EtOH: 0.1%) containing no odorant was also prepared as a comparative sample (blank).
Each sample solution prepared in the aforementioned manner was left to stand at 25° C. for one hour.
Then, an NTA sensor chip (by Biacore) was set in BiacoreX (by Biacore) and thereafter the temperature was set to 25° C. for performing priming with an elution buffer shown in Table 4 described later. Thereafter stabilization of the base was confirmed and the elution buffer was continuously fed at a flow velocity of 20 μl/min. until the temperature reached the set value.
Further, a reproduced solution (30 μl) shown in Table 4 described later was added at a flow velocity of 10 μl/min. and excessive bivalent cation was removed. Then, an Ni solution (30 μl) shown in Table 4 described later was added at a flow velocity of 10 μl/min. for chelating Ni to NTA and immobilizing Ni.
Then, one of the sample solutions (10 μl) prepared in the above was added at a flow velocity of 1 μl/min. for 10 minutes, for immobilizing the OBP 6C onto the sensor chip. After completion of immobilization, the quantity of immobilization of the OBP 6C was measured. Thereafter the reproduced solution shown in Table 4 was employed for washing and removing the OBP 6C immobilized onto the sensor chip.
Operations similar to the above were performed also as to the other sample solutions, for measuring the quantities of immobilization of the OBP 6C as to all of the six types of sample solutions and the comparative (blank) sample solution.
In this case, the quantity of immobilization of the comparative sample (blank) containing no odorant was regarded as 100% for calculating relative values of the quantities of immobilization of the OBP 6C in the respective samples with reference thereto.
In the present Inventive Example, an OBP 6C solution was first prepared along with preparation of DMO solutions. In this case, the OBP 6C solution was prepared by a method similar to the preparation method in Inventive Example 1. In preparation of the DMO solutions, DMO was dissolved in ethanol (EtOH), for preparing solutions of 10^−3, 10^−4, 10^−5 and 10^−6 M in concentration respectively.
100 μl of the OBP 6C solution having the concentration of […] and 0.5 μl of each of the DMO solutions of 10^−3, 10^−4, 10^−5 and 10^−6 M, thereby preparing sample solutions having DMO final concentration values of 5×10^−6, 5×10^−7, 5×10^−8 and 5×10^−9 M respectively. Also in this case, an ethanol solution (final concentration of EtOH: 0.1%) of the OBP 6C containing no DMO was prepared as a comparative sample, similarly to the case of Inventive Example 1.
The respective sample solutions prepared in the aforementioned manner were left to stand at 25° C. for one hour.
After preparing the sample solutions in the aforementioned manner, the quantities of immobilization of the OBP 6C were measured as to the respective sample solutions by a method similar to that in Inventive Example 1.

The target of assay [1] is T2, bovine derivation odorant binding protein (OBP) (Bos taurus, UniProt P07435).
T2 sequence (P07435 1-159): T1 sequence (P07435 1-159)
Conditions: grade in words (high / moderate affinity); cited from earlier work.

[2] abbreviates: Inventive Example 1, FIG. 12, odorant final concentration 10^−8 M, comparison between odorants.
Setting [3] is: Inventive Example 1, FIG. 12, odorant final concentration 10^−8 M, blank regarded as 100%, comparison between odorants.

Consider `CC(C)CCCC(C)CCO` (centres unmarked), for which the “DMO concentration that can be determined from the quantity of immobilization of the OBP 6C (quantitative limit)” value at OBP 6C (Inventive Example 2, FIG. 13) is on record as “at least 10^−8 M”. Moreover, on OBP 6C (Inventive Example 2, FIG. 13, DMO 5×10^−6 to 5×10^−9 M), the “DMO concentration range with constant correlation between concentration and quantity of immobilization of the OBP 6C” value was “at least 5×10^−8 M”. Besides, at OBP 6C (Inventive Example 2, FIG. 13, DMO concentration smaller than 10^−8 M, versus absence of the odorant), the “quantity of immobilization of the OBP 6C” value is recorded as “equalized with the quantity of immobilization”. In addition, the “affinity for the OBP” value in assay [1] is reported as “high affinity”.
As to `CCCCC/C(C=O)=C/c1ccccc1` [amyl cinnamic aldehyde], the “affinity for the OBP” value in assay [1] is on record as “high affinity”.
Turning to `CC/C(=C\CC1CC=C(C)C1(C)C)CO` (centres unmarked) [bacdanol], the “affinity for the OBP” value in assay [1] is recorded as “moderate affinity”.
For `O=C(c1ccccc1)c1ccccc1` [benzophenone], in assay [1], the “affinity for the OBP” value is on record as “high affinity”.
Regarding `O=C(OCc1ccccc1)c1ccccc1` [benzyl benzoate], the “affinity for the OBP” value in assay [1] is “high affinity”.
As for `CC(C)CC(=O)OCc1ccccc1` [benzyl isovalerate], the “affinity for the OBP” value in assay [1] is “high affinity”.
On to `CC(C)CC(=O)OC1CC2CCC1(C)C2(C)C` (centres unmarked) [bornyl isovalerate], for which the “affinity for the OBP” value in assay [1] is on record as “moderate affinity”.
For `CC1C(C)(C)C2=C(C(=O)CCC2)C1(C)C` (centres unmarked) [cashmeran], in assay [1], the “affinity for the OBP” value is listed as “moderate affinity”.
With `CC/C=C\CC1=C(C)CCC1=O` [cisjasmone], in assay [1], the “affinity for the OBP” value is on record as “moderate affinity”.
In the case of `COC(C=C(C)CCC=C(C)C)OC` [citral dimethyl acetal], in assay [1], the “affinity for the OBP” value was “moderate affinity”.
On to `CC(C)=CCCC(C)=CC#N` [citralva], for which the “affinity for the OBP” value in assay [1] is “high affinity”.
Regarding `CC(C)=CCCC(C)CC=O` (centres unmarked) [citronellal], the “affinity for the OBP 6C” value on OBP 6C (setting [2]) is “higher affinity for the OBP 6C as compared with geraniol”. Besides, the “quantity of immobilization of the OBP 6C” value on OBP 6C (setting [3]) was “reduced in citronellal as compared with geraniol”. Also, the “affinity for the OBP” value in assay [1] is recorded as “moderate affinity”.
Consider `CC(C)=CCCC(C)CCO` (centres unmarked) [citronellol], for which the “affinity for the OBP” value in assay [1] is reported as “high affinity”.
With `CC(=O)OCCC(C)CCC=C(C)C` (centres unmarked) [citronellyl acetate], in assay [1], the “affinity for the OBP” value is “moderate affinity”.
For the compound `CC(C)C/C=C(/C=O)c1ccccc1` [cocal], the “affinity for the OBP” value in assay [1] was “moderate affinity”.
As to `CCCCCCCCCC=O` [decanal], in assay [1], the “affinity for the OBP” value is listed as “moderate affinity”.
In the case of `CCOC(=O)c1ccccc1C(=O)OCC` [diethylphthalate], the “affinity for the OBP” value in assay [1] is recorded as “moderate affinity”.
With `C=CC(C)CCCC(C)(C)O` (centres unmarked) [dihydromyrcenol], in assay [1], the “affinity for the OBP” value is recorded as “high affinity”.
In the case of `CC(C)CCCC(C)(C)O` [dimethol], in assay [1], the “affinity for the OBP” value is listed as “moderate affinity”.
On to `CCCCC[C@H]1C(=O)CC[C@H]1CC(=O)OC` [epimethyl dihydrojasmonate], for which the “affinity for the OBP” value in assay [1] is recorded as “moderate affinity”.
`C=CCc1ccc(O)c(OC)c1` [eugenol]: the “affinity for the OBP” value in assay [1] is on record as “moderate affinity”.
`CC1COCc2cc3c(cc21)C(C)(C)C(C)C3(C)C` (centres unmarked) [galaxolide]: the “affinity for the OBP” value in assay [1] was “moderate affinity”.
As to `CC(C)=CCC/C(C)=C/CO` [geraniol], the “affinity for the OBP” value in assay [1] is listed as “moderate affinity”.
As for `CC(C)=CCC/C(C)=C/CCC=O` [geranyl acetaldehyde], the “affinity for the OBP” value in assay [1] is recorded as “moderate affinity”.
As for `CC(=O)OC/C=C(\C)CCC=C(C)C` [geranyl acetate], in assay [1], the “affinity for the OBP” value is reported as “moderate affinity”.
Take `CCCCCCC=O` [heptanal]: the “affinity for the OBP” value in assay [1] is reported as “moderate affinity”.
`CCCCCCC(C=O)=Cc1ccccc1` [hexyl cinnamic aldehyde]: the “affinity for the OBP” value in assay [1] is recorded as “high affinity”.
With `CCCCCCOC(=O)C(C)CC` (centres unmarked) [hexyl methylbutyrate], in assay [1], the “affinity for the OBP” value is reported as “moderate affinity”.
In the case of `CCCCCC1COCCC1OC(C)=O` (centres unmarked) [jasmal], the “affinity for the OBP” value in assay [1] is reported as “moderate affinity”.
Take `C=CC(C)(O)CCC=C(C)C` (centres unmarked) [linalool]: the “affinity for the OBP” value in assay [1] was “moderate affinity”.
For `CC(C)[C@@H]1CC[C@@H](C)CC1=O` [menthone], in assay [1], the “affinity for the OBP” value is “moderate affinity”.
With `CCCCCC1C(=O)CCC1CC(=O)OC` (centres unmarked) [methyl dihydrojasmonate], the “affinity for the OBP” value in assay [1] was “moderate affinity”.
For the compound `CC(C)=CCCC1=CCC(C=O)CC1` (centres unmarked) [myrmac aldehyde], the “affinity for the OBP” value in assay [1] was “moderate affinity”.
As to `C/C=C(C)\C=C\C=C(C)C` [neo-alloocimen], in assay [1], the “affinity for the OBP” value is reported as “moderate affinity”.
As to `CC(C)=CCC/C(C)=C\CO` [nerol], in assay [1], the “affinity for the OBP” value is on record as “moderate affinity”.
On to `CCCCCCCCC=O` [nonanal], for which the “affinity for the OBP” value in assay [1] is recorded as “moderate affinity”.
Take `CCCCCCCCOC(=O)C(C)C` [octyl isobutyrate]: the “affinity for the OBP” value in assay [1] was “moderate affinity”.
As to `CCCCCCCCOC(=O)CC(C)C` [octyl isovalerate], the “affinity for the OBP” value in assay [1] was “moderate affinity”.
Turning to `OCCc1ccccc1` [phenetyl alcohol], the “affinity for the OBP” value in assay [1] is “moderate affinity”.
For the compound `CC1(C)C2CC=C(CCC=O)C1C2` (centres unmarked) [pinoacetaldehyde], the “affinity for the OBP” value in assay [1] is given as “moderate affinity”.
As to `CC1=C(/C=C/C(C)=C/C=C/C(C)=C/C=O)C(C)(C)CCC1` [retinal], in assay [1], the “affinity for the OBP” value is recorded as “moderate affinity”.
Regarding `CC1=C(/C=C/C(C)=C/C=C/C(C)=C/CO)C(C)(C)CCC1` [retinol], the “affinity for the OBP” value in assay [1] was “moderate affinity”.
On to `Cc1c[nH]c2ccccc12` [skatole], for which the “affinity for the OBP” value in assay [1] is reported as “high affinity”.
For the compound `CCCCCCCCCCCCCC=O` [tetradecanal], the “affinity for the OBP” value in assay [1] was “high affinity”.
Turning to `CCCCCCCCCCC=O` [undecanal], the “affinity for the OBP” value in assay [1] was “high affinity”.
Consider `CC(=O)OC1CCC(C(C)(C)C)CC1` (centres unmarked) [vertenex], for which, in assay [1], the “affinity for the OBP” value is “moderate affinity”.
Regarding agrumea, in assay [1], the “affinity for the OBP” value is given as “moderate affinity”.
ambrettolide: in assay [1], the “affinity for the OBP” value was “moderate affinity”.
As to carbon, the “affinity for the OBP” value in assay [1] is given as “moderate affinity”.
As to coniferane, the “affinity for the OBP” value in assay [1] is reported as “moderate affinity”.
For dimethyl octane, the “affinity for the OBP” value in assay [1] is given as “moderate affinity”.
Take dimethyl octhene: the “affinity for the OBP” value in assay [1] is given as “moderate affinity”.
For heptenal, the “affinity for the OBP” value in assay [1] is recorded as “moderate affinity”.
With hexyl pyridine, in assay [1], the “affinity for the OBP” value was “high affinity”.
Turning to ionone, the “affinity for the OBP” value in assay [1] is recorded as “moderate affinity”.
As for jessemal, the “affinity for the OBP” value in assay [1] is given as “moderate affinity”.
With musk 89, the “affinity for the OBP” value in assay [1] was “high affinity”.
Consider oxidized citronellal, for which, on OBP 6C (setting [2]), the “affinity for the OBP 6C” value was “reduced in oxidized citronellal as compared with non-oxidized citronellal”. For the same compound, the “quantity of immobilization of the OBP 6C” value on OBP 6C (setting [3]) is “increased in oxidized citronellal as compared with the non-oxidized case”.
Regarding pinylisobutyl aldehyde, the “affinity for the OBP” value in assay [1] is recorded as “moderate affinity”.
